The NIST ThermoML archive (doi:10.1021/je700224j)

Conditions: Liquid

CCCCn1cc[n+](C)c1.F[P-](F)(F)(F)(F)F [1-butyl-3-methylimidazolium hexafluorophosphate]
Conditions	mass density [kg/m3]
293.48 K, 1000 kPa	1369.9
293.49 K, 101.33 kPa	1369.8
293.49 K, 20000 kPa	1378.3
293.5 K, 10000 kPa	1374
293.5 K, 40000 kPa	1385.9
293.51 K, 5000 kPa	1371.7
293.51 K, 30000 kPa	1382.2
302.73 K, 101.33 kPa	1362
312.86 K, 101.33 kPa	1353.5
322.28 K, 101.33 kPa	1345.5
322.3 K, 10000 kPa	1350.6
322.3 K, 20000 kPa	1355.2
322.31 K, 1000 kPa	1346.2
322.31 K, 40000 kPa	1363.3
322.33 K, 5000 kPa	1348.2
322.33 K, 30000 kPa	1359.3
332.73 K, 101.33 kPa	1337
342.5 K, 101.33 kPa	1328.7
352.29 K, 101.33 kPa	1320.9
352.3 K, 40000 kPa	1339.8
352.31 K, 1000 kPa	1321.6
352.31 K, 10000 kPa	1326.3
352.31 K, 20000 kPa	1331.2
352.32 K, 5000 kPa	1323.7
352.34 K, 30000 kPa	1335.6
373.3 K, 5000 kPa	1306.6
373.31 K, 10000 kPa	1309.4
373.32 K, 30000 kPa	1319
373.33 K, 101.33 kPa	1303.9
373.33 K, 1000 kPa	1304.4
373.33 K, 40000 kPa	1323.3
373.34 K, 20000 kPa	1314.3
391.27 K, 10000 kPa	1294.7
391.28 K, 30000 kPa	1304.7
391.3 K, 101.33 kPa	1289.1
391.3 K, 5000 kPa	1292
391.31 K, 20000 kPa	1300
391.31 K, 40000 kPa	1309.1
391.32 K, 1000 kPa	1289.5
414.91 K, 10000 kPa	1275.6
414.92 K, 20000 kPa	1281
414.92 K, 40000 kPa	1290.5
414.93 K, 101.33 kPa	1269.7
414.93 K, 5000 kPa	1272.6
414.93 K, 30000 kPa	1285.9
414.94 K, 1000 kPa	1270.2

CCCC[n+]1ccn(C)c1.O=S(=O)([N-]S(=O)(=O)C(F)(F)F)C(F)(F)F
Conditions	mass density [kg/m3]
293.49 K, 101.33 kPa	1442.2
293.49 K, 1000 kPa	1442.8
293.49 K, 10000 kPa	1449
293.49 K, 30000 kPa	1462.1
293.49 K, 40000 kPa	1468.4
293.5 K, 5000 kPa	1445.6
293.5 K, 20000 kPa	1455.7
303.15 K, 101.33 kPa	1433
312.84 K, 101.33 kPa	1423.9
322.3 K, 10000 kPa	1422.5
322.3 K, 40000 kPa	1443.6
322.31 K, 101.33 kPa	1414.9
322.31 K, 1000 kPa	1415.6
322.31 K, 20000 kPa	1429.8
322.31 K, 30000 kPa	1436.8
322.32 K, 5000 kPa	1418.7
332.78 K, 101.33 kPa	1405.1
342.98 K, 101.33 kPa	1395.5
352.31 K, 5000 kPa	1390.9
352.31 K, 10000 kPa	1395.1
352.32 K, 20000 kPa	1403
352.32 K, 30000 kPa	1410.7
352.32 K, 40000 kPa	1418
352.33 K, 101.33 kPa	1386.6
352.33 K, 1000 kPa	1387.5
373.3 K, 30000 kPa	1392.7
373.31 K, 5000 kPa	1371.6
373.31 K, 20000 kPa	1384.5
373.32 K, 101.33 kPa	1367.1
373.32 K, 1000 kPa	1368
373.32 K, 10000 kPa	1376
373.33 K, 40000 kPa	1400.4
391.27 K, 1000 kPa	1351.3
391.28 K, 101.33 kPa	1350.4
391.28 K, 10000 kPa	1359.8
391.28 K, 20000 kPa	1368.8
391.28 K, 30000 kPa	1377.3
391.28 K, 40000 kPa	1385.4
391.3 K, 5000 kPa	1355.1
414.91 K, 20000 kPa	1348.1
414.91 K, 40000 kPa	1365.8
414.92 K, 101.33 kPa	1328.5
414.92 K, 1000 kPa	1329.5
414.92 K, 5000 kPa	1333.6
414.92 K, 10000 kPa	1338.6
414.92 K, 30000 kPa	1357.2

CCn1cc[n+](C)c1.O=S(=O)([N-]S(=O)(=O)C(F)(F)F)C(F)(F)F
Conditions	mass density [kg/m3]
293.49 K, 101.33 kPa	1522.3
293.49 K, 10000 kPa	1527.8
293.49 K, 20000 kPa	1533.3
293.49 K, 30000 kPa	1538.6
293.49 K, 40000 kPa	1543.6
293.5 K, 1000 kPa	1522.9
293.5 K, 5000 kPa	1525
302.68 K, 101.33 kPa	1513.2
312.64 K, 101.33 kPa	1503.2
322.3 K, 101.33 kPa	1493.2
322.3 K, 10000 kPa	1499.5
322.3 K, 20000 kPa	1505.3
322.3 K, 40000 kPa	1516.3
322.31 K, 5000 kPa	1496.5
322.31 K, 30000 kPa	1510.9
322.32 K, 1000 kPa	1494
332.58 K, 101.33 kPa	1483.2
342.49 K, 101.33 kPa	1473.6
352.3 K, 20000 kPa	1476.5
352.3 K, 40000 kPa	1488.2
352.31 K, 10000 kPa	1470.2
352.32 K, 101.33 kPa	1463.6
352.32 K, 5000 kPa	1467
352.32 K, 30000 kPa	1482.5
352.34 K, 1000 kPa	1464.4
373.3 K, 5000 kPa	1446.5
373.3 K, 30000 kPa	1462.8
373.31 K, 1000 kPa	1443.9
373.32 K, 101.33 kPa	1443.2
373.32 K, 10000 kPa	1449.9
373.33 K, 20000 kPa	1456.5
373.33 K, 40000 kPa	1468.7
391.25 K, 1000 kPa	1426.3
391.28 K, 10000 kPa	1432.6
391.28 K, 30000 kPa	1446
391.29 K, 101.33 kPa	1425.6
391.29 K, 5000 kPa	1429
391.31 K, 20000 kPa	1439.4
391.31 K, 40000 kPa	1452.3
414.92 K, 101.33 kPa	1402.4
414.92 K, 5000 kPa	1406
414.92 K, 10000 kPa	1409.8
414.92 K, 20000 kPa	1417.2
414.92 K, 30000 kPa	1424.2
414.92 K, 40000 kPa	1430.9
414.93 K, 1000 kPa	1403.1

CCCCn1cc[n+](C)c1.F[B-](F)(F)F [1-butyl-3-methylimidazolium tetrafluoroborate]
Conditions	mass density [kg/m3]
292.94 K, 101.33 kPa	1204.8
293.49 K, 10000 kPa	1208.5
293.49 K, 30000 kPa	1216.5
293.49 K, 40000 kPa	1220.4
293.5 K, 1000 kPa	1204.7
293.5 K, 20000 kPa	1212.6
293.51 K, 5000 kPa	1206.5
302.8 K, 101.33 kPa	1197.5
312.79 K, 101.33 kPa	1190.2
322.3 K, 10000 kPa	1187.7
322.3 K, 40000 kPa	1200.4
322.31 K, 1000 kPa	1183.6
322.31 K, 20000 kPa	1192
322.31 K, 30000 kPa	1196.2
322.33 K, 5000 kPa	1185.4
322.83 K, 101.33 kPa	1182.9
332.53 K, 101.33 kPa	1175.8
342.72 K, 101.33 kPa	1168.6
352.31 K, 10000 kPa	1166.5
352.32 K, 101.33 kPa	1161.7
352.32 K, 5000 kPa	1164.1
352.32 K, 20000 kPa	1171.1
352.32 K, 30000 kPa	1175.7
352.33 K, 1000 kPa	1162.1
352.33 K, 40000 kPa	1180.01
373.31 K, 5000 kPa	1149.4
373.31 K, 20000 kPa	1156.8
373.32 K, 101.33 kPa	1146.9
373.32 K, 10000 kPa	1152
373.33 K, 30000 kPa	1161.6
373.33 K, 40000 kPa	1166.1
373.34 K, 1000 kPa	1147.3
391.27 K, 1000 kPa	1135
391.29 K, 101.33 kPa	1134.5
391.29 K, 10000 kPa	1139.7
391.29 K, 20000 kPa	1144.8
391.29 K, 30000 kPa	1149.7
391.29 K, 40000 kPa	1154.4
391.31 K, 5000 kPa	1137.1
414.92 K, 101.33 kPa	1116.5
414.92 K, 5000 kPa	1119.4
414.92 K, 20000 kPa	1127.4
414.92 K, 40000 kPa	1137.4
414.93 K, 1000 kPa	1117.1
414.93 K, 10000 kPa	1122.1
414.93 K, 30000 kPa	1132.5

CCOS(=O)(=O)[O-].CCn1cc[n+](C)c1 [1-ethyl-3-methylimidazolium ethyl sulfate]
Conditions	mass density [kg/m3]
292.49 K, 101.33 kPa	1242.1
293.46 K, 10000 kPa	1250.9
293.46 K, 20000 kPa	1259.3
293.47 K, 1000 kPa	1242.9
293.47 K, 5000 kPa	1246.5
293.47 K, 30000 kPa	1267.5
293.48 K, 40000 kPa	1275.4
302.61 K, 101.33 kPa	1236.7
312.47 K, 101.33 kPa	1230.7
322.3 K, 101.33 kPa	1224.4
322.31 K, 1000 kPa	1225.6
322.31 K, 5000 kPa	1229.5
322.31 K, 20000 kPa	1243.3
322.31 K, 40000 kPa	1260.6
322.32 K, 10000 kPa	1234.2
322.33 K, 30000 kPa	1252.1
332.74 K, 101.33 kPa	1218.4
342.42 K, 101.33 kPa	1212.6
352.32 K, 101.33 kPa	1206.3
352.33 K, 1000 kPa	1207.6
352.33 K, 5000 kPa	1211.8
352.33 K, 10000 kPa	1216.9
352.34 K, 20000 kPa	1226.7
352.34 K, 30000 kPa	1236
352.34 K, 40000 kPa	1245.2
373.36 K, 101.33 kPa	1194.1
373.36 K, 1000 kPa	1195
373.36 K, 5000 kPa	1199.4
373.36 K, 10000 kPa	1204.8
373.36 K, 30000 kPa	1225
373.36 K, 40000 kPa	1234.4
373.37 K, 20000 kPa	1215
391.39 K, 101.33 kPa	1183.2
391.39 K, 1000 kPa	1184.2
391.39 K, 5000 kPa	1188.8
391.39 K, 10000 kPa	1194.6
391.39 K, 30000 kPa	1215.4
391.39 K, 40000 kPa	1225.2
391.41 K, 20000 kPa	1205.1
414.94 K, 10000 kPa	1180.8
414.94 K, 20000 kPa	1192.1
414.94 K, 30000 kPa	1202.9
414.95 K, 101.33 kPa	1169.1
414.95 K, 1000 kPa	1170.2
414.95 K, 5000 kPa	1174.9
414.95 K, 40000 kPa	1213.2
